Source: US20250195521A1 (Revolution Medicines, Inc., priority 2020, published 2025)

How the values were obtained:
Assay type in all cases: biochemical
NRAS G12C = NRAS G12C (Homo sapiens (Human), UniProt P01111+P62937, G12C); experiment: Ras-Raf disruption/FRET/MOA assay, NRAS G12C; details: read-out: NRAS G12C FRET data IC50
Excerpt: (§1) Disruption of B-Raf Ras-Binding Domain (BRAF^RBD) Interaction with K-Ras by Compounds of the Invention (Also Called a FRET Assay or an MOA Assay)
(§2) Note—The following protocol describes a procedure for monitoring disruption of K-Ras G12C (GMP-PNP) binding to BRAF^RBD by a compound of the invention. This protocol may also be executed substituting other Ras proteins or nucleotides, such as K-Ras G12D and K-Ras G13D.
(§3) The purpose of this biochemical assay was to measure the ability of test compounds to facilitate ternary complex formation between a nucleotide-loaded K-Ras isoform and Cyclophilin A; the resulting ternary complex disrupts binding to a BRAF^RBD construct, inhibiting K-Ras signaling through a RAF effector. Data is reported as IC50 values.
(§4) In assay buffer containing 25 mM HEPES pH 7.3, 0.002% Tween20, 0.1% BSA, 100 mM NaCl and 5 mM MgCl2, tagless Cyclophilin A, His6-K-Ras-GMPPNP, and GST-BRAF^RBD were combined in a 384-well assay plate at final concentrations of 25 μM, 12.5 nM, and 50 nM, respectively. Compound was present in plate wells as a 10-point 3-fold dilution series starting at a final concentration of 30 μM. After incubation at 25° C. for 3 hours, a mixture of anti-His Eu—W1024 and anti-GST allophycocyanin was then added to assay sample wells at final concentrations of 10 nM and 50 nM, respectively, and the reaction incubated for an additional 1.5 hours. […] Compounds that facilitate disruption of a K-Ras: RAF complex were identified as those eliciting a decrease in the TR-FRET ratio relative to DMSO control wells.

KRAS G12V = KRAS G12V (Homo sapiens (Human), UniProt P01116+P62937, G12V); experiment: Ras-Raf disruption/FRET/MOA assay, KRAS G12V; details: read-out: KRAS G12V FRET IC50
Excerpt: as §1, §2, §3, §4

KRAS G12D = KRAS G12D (Homo sapiens (Human), UniProt P01116+P62937, G12D); experiment: Ras-Raf disruption/FRET/MOA assay, KRAS G12D; details: read-out: KRAS G12D FRET IC50
Excerpt: as §1, §2, §3, §4

KRAS G13D = KRAS G13D (Homo sapiens (Human), UniProt P01116+P62937, G13D); experiment: Ras-Raf disruption/FRET/MOA assay, KRAS G13D; details: read-out: KRAS G13D FRET IC50
Excerpt: as §1, §2, §3, §4

KRAS WT = KRAS WT (Homo sapiens (Human), UniProt P01116+P62937); experiment: Ras-Raf disruption/FRET/MOA assay, KRAS WT; details: read-out: KRAS WT FRET IC50
Excerpt: as §1, §2, §3, §4

KRAS G13C = KRAS G13C (Homo sapiens (Human), UniProt P01116+P62937, G13C); experiment: Ras-Raf disruption/FRET/MOA assay, KRAS G13C; details: read-out: KRAS G13C FRET IC50
Excerpt: as §1, §2, §3, §4

KRAS G12S = KRAS G12S (Homo sapiens (Human), UniProt P01116+P62937, G12S); experiment: Ras-Raf disruption/FRET/MOA assay, KRAS G12S; details: read-out: KRAS G12S FRET IC50
Excerpt: as §1, §2, §3, §4

KRAS G12C = KRAS G12C (Homo sapiens (Human), UniProt P01116+P62937, G12C); experiment: Ras-Raf disruption/FRET/MOA assay, KRAS G12C; details: read-out: KRAS G12C FRET data IC50
Excerpt: as §1, §2, §3, §4

Sequence of KRAS G13D (P01116 other isoform, or with tags, fused parts or gaps G13D): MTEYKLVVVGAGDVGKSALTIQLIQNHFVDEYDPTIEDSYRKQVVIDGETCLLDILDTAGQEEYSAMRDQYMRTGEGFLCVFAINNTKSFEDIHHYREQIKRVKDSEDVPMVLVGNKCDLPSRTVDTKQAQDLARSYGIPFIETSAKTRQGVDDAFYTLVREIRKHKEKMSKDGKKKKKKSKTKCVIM
Sequence of KRAS G13D (P62937 whole entry): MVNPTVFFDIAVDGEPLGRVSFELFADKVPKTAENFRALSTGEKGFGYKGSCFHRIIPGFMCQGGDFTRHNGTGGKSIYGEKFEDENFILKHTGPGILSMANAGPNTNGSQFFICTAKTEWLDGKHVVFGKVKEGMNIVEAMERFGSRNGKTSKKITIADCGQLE
Sequence of KRAS G12D (P01116 other isoform, or with tags, fused parts or gaps G12D): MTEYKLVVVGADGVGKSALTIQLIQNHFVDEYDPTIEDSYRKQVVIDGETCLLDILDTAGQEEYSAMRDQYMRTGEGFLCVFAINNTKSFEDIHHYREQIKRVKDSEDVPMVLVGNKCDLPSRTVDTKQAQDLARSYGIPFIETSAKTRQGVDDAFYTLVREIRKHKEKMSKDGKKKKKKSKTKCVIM
Sequence of KRAS G12D (P62937 whole entry): as the sequence (P62937 whole entry) above
Sequence of KRAS G13C (P01116 other isoform, or with tags, fused parts or gaps G13C): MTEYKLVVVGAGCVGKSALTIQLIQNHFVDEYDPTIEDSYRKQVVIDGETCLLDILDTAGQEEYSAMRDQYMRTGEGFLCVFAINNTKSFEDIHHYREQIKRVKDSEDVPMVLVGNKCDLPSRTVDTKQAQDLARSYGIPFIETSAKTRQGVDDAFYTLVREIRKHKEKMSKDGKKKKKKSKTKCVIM
Sequence of KRAS G13C (P62937 whole entry): as the sequence (P62937 whole entry) above
Sequence of KRAS WT (P01116 other isoform, or with tags, fused parts or gaps): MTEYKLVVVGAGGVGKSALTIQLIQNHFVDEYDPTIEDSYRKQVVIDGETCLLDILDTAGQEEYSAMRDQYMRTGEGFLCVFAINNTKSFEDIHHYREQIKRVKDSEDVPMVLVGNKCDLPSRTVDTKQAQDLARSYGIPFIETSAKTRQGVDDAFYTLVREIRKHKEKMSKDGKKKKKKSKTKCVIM
Sequence of KRAS WT (P62937 whole entry): as the sequence (P62937 whole entry) above
Sequence of KRAS G12C (P01116-2 other isoform, or with tags, fused parts or gaps G12C): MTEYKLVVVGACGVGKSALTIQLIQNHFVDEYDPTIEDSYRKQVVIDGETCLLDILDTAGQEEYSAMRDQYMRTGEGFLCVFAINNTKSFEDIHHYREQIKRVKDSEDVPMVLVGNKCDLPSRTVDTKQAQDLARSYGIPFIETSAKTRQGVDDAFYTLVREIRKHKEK
Sequence of KRAS G12C (P62937 whole entry): as the sequence (P62937 whole entry) above
Sequence of KRAS G12S (P01116 other isoform, or with tags, fused parts or gaps G12S): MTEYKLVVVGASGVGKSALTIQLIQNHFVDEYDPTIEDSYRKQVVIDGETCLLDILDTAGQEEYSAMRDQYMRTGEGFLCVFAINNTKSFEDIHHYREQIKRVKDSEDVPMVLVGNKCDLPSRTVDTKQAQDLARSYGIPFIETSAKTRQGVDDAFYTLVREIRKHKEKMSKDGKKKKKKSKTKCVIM
Sequence of KRAS G12S (P62937 whole entry): as the sequence (P62937 whole entry) above
Sequence of KRAS G12V (P01116 other isoform, or with tags, fused parts or gaps G12V): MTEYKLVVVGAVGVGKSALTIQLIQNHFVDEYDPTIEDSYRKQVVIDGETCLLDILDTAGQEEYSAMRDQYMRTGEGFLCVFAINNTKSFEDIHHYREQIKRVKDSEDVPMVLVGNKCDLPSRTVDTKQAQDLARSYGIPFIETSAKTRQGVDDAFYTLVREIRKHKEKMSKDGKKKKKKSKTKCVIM
Sequence of KRAS G12V (P62937 whole entry): as the sequence (P62937 whole entry) above
Sequence of NRAS G12C (P01111 whole entry G12C, the tested form may be a part): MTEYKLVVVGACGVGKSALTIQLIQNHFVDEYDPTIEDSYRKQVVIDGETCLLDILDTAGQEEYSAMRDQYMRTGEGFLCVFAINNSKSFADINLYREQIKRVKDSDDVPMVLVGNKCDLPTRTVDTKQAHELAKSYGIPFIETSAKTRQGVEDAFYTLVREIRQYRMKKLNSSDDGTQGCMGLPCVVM
Sequence of NRAS G12C (P62937 whole entry, the tested form may be a part): as the sequence (P62937 whole entry) above

Row | SMILES | IC50 (NRAS G12C) [nM] | IC50 (KRAS G12V) [nM] | IC50 (KRAS G12D) [nM] | IC50 (KRAS G13D) [nM] | IC50 (KRAS WT) [nM] | IC50 (KRAS G13C) [nM] | IC50 (KRAS G12S) [nM] | IC50 (KRAS G12C) [nM]
1 | CCn1c(-c2cccnc2COC)c2c3cc(ccc31)-c1cc(O)cc(c1)C[C@H](NC(=O)[C@H](C(C)C)N(C)C(=O)CCNC1=NCCO1)C(=O)N1CCC[C@H](N1)C(=O)OCC(C)(C)C2 [Example 27] | > 10000 | 1000 to 10000 | > 10000 | 1000 to 10000 | 1000 to 10000 | 1000 to 10000 | > 10000 | 1000 to 10000
2 | CCn1c(-c2cccnc2COC)c2c3cc(ccc31)-c1cc(O)cc(c1)C[C@H](NC(=O)[C@H](C(C)C)N(C)C(=O)CNC1=NCCO1)C(=O)N1CCC[C@H](N1)C(=O)OCC(C)(C)C2 [Example 28] | 1000 to 10000 | 1000 to 10000 | > 10000 | 1000 to 10000 | > 10000 | 1000 to 10000 | > 10000 | 1000 to 10000
3 | CCn1c(-c2cnccc2COC)c2c3cc(ccc31)-c1cc(O)cc(c1)C[C@H](NC(=O)[C@H](C(C)C)N(C)C(=O)[C@H]1CCN(C(=O)[C@@H]3CO3)C1)C(=O)N1CCC[C@H](N1)C(=O)OCC(C)(C)C2 [Example 31, (3S)—N-((2S)-1-(((6^3S,4S)-1^1-ethyl-25-hydroxy-1^2-(4-(methoxymethyl)pyridin-3-yl)-10,10-dimethyl-5,7-dioxo-6^1,6^2,6^3,6^4,6^5,6^6-hexahydro-1^1H-8-oxa-1 (5,3)-indola-6 (1,3)-pyridazina-2 (1,3)-benzenacycloundecaphane-4-yl)amino)-3-methyl-1-oxobutan-2-yl)-N-methyl-1-((S)-oxirane-2-carbonyl) pyrrolidine-3-carboxamide] | 100 to 1000 | 100 to 1000 | 1000 to 10000 | 1000 to 10000 | 1000 to 10000 | 100 to 1000 | 100 to 1000 | 10 to 100
4 | CCn1c(-c2cnccc2COC)c2c3cc(ccc31)-c1cc(O)cc(c1)C[C@H](NC(=O)[C@H](C(C)C)N(C)C(=O)CCN(C)C(=O)[C@@H]1CN1)C(=O)N1CCC[C@H](N1)C(=O)OCC(C)(C)C2 [Example 40] | 100 to 1000 | 100 to 1000 | 100 to 1000 | 100 to 1000 | 100 to 1000 | 100 to 1000 | 100 to 1000 | 100 to 1000
5 | CCn1c(-c2cnccc2COC)c2c3cc(ccc31)-c1cc(O)cc(c1)C[C@H](NC(=O)[C@H](C(C)C)N(C)C(=O)N1CCCN(C(=O)[C@H]3CN3)CC1)C(=O)N1CCC[C@H](N1)C(=O)OCC(C)(C)C2 [Example 44] | 10 to 100 | 10 to 100 | 100 to 1000 | 100 to 1000 | 10 to 100 | 10 to 100 | 100 to 1000 | 10 to 100
6 | CCn1c(-c2cnccc2COC)c2c3cc(ccc31)-c1cc(O)cc(c1)C[C@H](NC(=O)[C@H](C(C)C)N(C)C(=O)N1CCCN(C(=O)[C@@H]3CN3)CC1)C(=O)N1CCC[C@H](N1)C(=O)OCC(C)(C)C2 [Example 45] | 10 to 100 | 100 to 1000 | 100 to 1000 | 100 to 1000 | 10 to 100 | 10 to 100 | 100 to 1000 | 10 to 100
7 | CCn1c(-c2cnccc2COC)c2c3cc(ccc31)-c1cc(O)cc(c1)C[C@H](NC(=O)[C@H](C(C)C)N(C)C(=O)c1ccc(NC(=O)[C@@H]3CN3)cn1)C(=O)N1CCC[C@H](N1)C(=O)OCC(C)(C)C2 [Example 46] | 100 to 1000 | 1000 to 10000 | 1000 to 10000 | 1000 to 10000 | 1000 to 10000 | 100 to 1000 | 100 to 1000 | 100 to 1000
8 | CCn1c(-c2cnccc2COC)c2c3cc(ccc31)-c1cc(O)cc(c1)C[C@H](NC(=O)[C@@H](CN(C)C(=O)[C@@H]1CN1)C(C)C)C(=O)N1CCC[C@H](N1)C(=O)OCC(C)(C)C2 [Example 60] | > 10000 | 1000 to 10000 | > 10000 | > 10000 | > 10000 | > 10000 | > 10000 | 1000 to 10000
9 | CCn1c(-c2cnccc2COC)c2c3cc(ccc31)-c1cccc(c1)C[C@H](NC(=O)[C@H](C(C)C)N(C)C(=O)CCN=C=Nc1ccccc1COC)C(=O)N1CCC[C@H](N1)C(=O)OCC(C)(C)C2 [Example 63] | 1000 to 10000 | 1000 to 10000 | 1000 to 10000 | > 10000 | 1000 to 10000 | 1000 to 10000 | 1000 to 10000 | 1000 to 10000
10 | CCn1c(-c2cnccc2COC)c2c3cc(ccc31)-c1cccc(c1)C[C@H](NC(=O)[C@H](C(C)C)N(C)C(=O)CCN=C=Nc1ccc(N(C)C)cc1)C(=O)N1CCC[C@H](N1)C(=O)OCC(C)(C)C2 [Example 66] | 100 to 1000 | 1000 to 10000 | 1000 to 10000 | 1000 to 10000 | 1000 to 10000 | 100 to 1000 | 1000 to 10000 | 100 to 1000
11 | CCn1c(-c2cnccc2COC)c2c3cc(ccc31)-c1cccc(c1)C[C@H](NC(=O)[C@H](C(C)C)N(C)C(=O)CCN=C=Nc1ccc(N3CCOCC3)cc1)C(=O)N1CCC[C@H](N1)C(=O)OCC(C)(C)C2 [Example 67] | 100 to 1000 | 1000 to 10000 | 1000 to 10000 | 1000 to 10000 | 1000 to 10000 | 1000 to 10000 | 1000 to 10000 | 100 to 1000
12 | CCn1c(-c2cnccc2COC)c2c3cc(ccc31)-c1cccc(c1)C[C@H](NC(=O)[C@H](C(C)C)N(C)C(=O)CCN=C=NCc1c(OC)cccc1OC)C(=O)N1CCC[C@H](N1)C(=O)OCC(C)(C)C2 [Example 75] | 100 to 1000 | 1000 to 10000 | > 10000 | > 10000 | > 10000 | > 10000 | > 10000 | 100 to 1000
13 | CCn1c(-c2cnccc2COC)c2c3cc(ccc31)-c1cccc(c1)C[C@H](NC(=O)[C@H](C(C)C)N1CC[C@@H](CN=C=NCCOC)C1)C(=O)N1CCC[C@H](N1)C(=O)OCC(C)(C)C2 [Example 80] | 100 to 1000 | 1000 to 10000 | 1000 to 10000 | > 10000 | 1000 to 10000 | 1000 to 10000 | 1000 to 10000 | 100 to 1000
14 | CCn1c(-c2cnccc2COC)c2c3cc(ccc31)-c1cccc(c1)C[C@H](NC(=O)[C@H](C(C)C)N1CC[C@H](CN=C=Nc3ccc(OC)cc3)C1)C(=O)N1CCC[C@H](N1)C(=O)OCC(C)(C)C2 [Example 81] | 1000 to 10000 | 1000 to 10000 | > 10000 | > 10000 | > 10000 | > 10000 | > 10000 | 100 to 1000
15 | CCn1c(-c2cnccc2COC)c2c3cc(ccc31)-c1cc(O)cc(c1)C[C@H](NC(=O)[C@H](C(C)C)N(C)C(=O)CN1C(=O)[C@H]3N[C@H]3C1=O)C(=O)N1CCC[C@H](N1)C(=O)OCC(C)(C)C2 [Example 98] | 1000 to 10000 | 1000 to 10000 | 1000 to 10000 | 1000 to 10000 | 100 to 1000 | 100 to 1000 | 1000 to 10000 | 100 to 1000
16 | CCn1c(-c2cnccc2COC)c2c3cc(ccc31)-c1cc(O)cc(c1)C[C@H](NC(=O)[C@@H](CN(C)C(=O)[C@H]1CN1)C(C)C)C(=O)N1CCC[C@H](N1)C(=O)OCC(C)(C)C2 [Example 99] | > 10000 | 1000 to 10000 | > 10000 | > 10000 | > 10000 | > 10000 | > 10000 | 1000 to 10000
17 | CCn1c(-c2cnccc2COC)c2c3cc(ccc31)-c1cc(O)cc(c1)C[C@H](NC(=O)[C@H](C(C)C)N(C)C(=O)CCNC1=NCCO1)C(=O)N1CCC[C@H](N1)C(=O)OCC(C)(C)C2 [Example 120] | 100 to 1000 | 100 to 1000 | 100 to 1000 | 10 to 100 | 10 to 100 | 10 to 100 | 100 to 1000 | 100 to 1000
